Assays:
Eomes = test: RT-qPCR relative expression of Eomes in cultured HPCs; format: cell-based, mouse; settings: 5 μM added Day 2, harvested Day 4
Procedure: (§1) FIG. 8: HPCs were cultured with or without 5 μM SR8278 added on Day 2. At Day 3, 4 and 5, cells were harvested in order to quantify their relative […] by RT-qPCR. The graphs show relative expression of (A) E4bp4, (B) Id2 and (C) Eomes normalized to the housekeeping gene, Hprt.
(§2) HPCs isolated from a WT mouse were cultured as previously (FIG. 2) but the cells were harvested and analysed using RT-qPCR on Day 3, 4 and 5. The relative expression of the E4bp4, Id2 and Eomes genes was compared to the housekeeping gene, Hprt. At Day 4, E4bp4, Id2 and Eomes expression was higher in SR8278 treated samples when compared to the ‘No drug’ control (FIG. 8). The increase in E4bp4 expression disappeared at Day 5 but the increase of Id2 expression remained (FIG. 8B). The upregulation of E4bp4 and its downstream targets happens in a matter of hours and only stays high for a defined period of time.
(§3) RNA was extracted using Qiagen RNeasy Micro Kit according to the manufacture's protocol (Qiagen). Centrifugation was done at 8000 g for 15 seconds and the flow through discarded. Briefly, 350 μl of Buffer RLT+10% β-Mercaptoethanol were added to the harvested cells. […] The concentration of RNA in each sample was measured using Nanodrop, and all samples were diluted to the same working concentration. […]

Id2 = test: RT-qPCR relative expression of Id2 in cultured HPCs; format: cell-based, mouse
Procedure: as §1, §2, §3

HPCs = test: Live cells / toxicity in mouse HPC culture under NK cell-producing conditions; format: cell-based
Procedure: FIG. […] At Day 9, percentage of NK cells was quantified using flow cytometry. (A) Graph showing relative mature mouse NK cell (NK1.1+ CD3−) production when 5 and 10 μM SR8278 were added on different days compared to the ‘No drug’ control. (B) Representative flow cytometry results with percentage of NK cells shown. Addition of 5 μM SR8278 is shown on the top, whereas addition of 10 μM SR8278 is shown on the bottom. […] Results were averaged from two experiments with four repeats each and the error bars represent the mean+SD. Asterisks indicate significant differences from the two annotated results (* is P≤0.01, *** is P≤0.0001 and **** is P≤0.00001) based on Mann-Whitney test.
The HPCs were plated and cultured in 24-well plates at a concentration of 5×10^5 HPCs/well in 1 ml of complete cytokine medium (Dulbecco's modified eagle medium (DMEM) (Sigma Aldrich), 10% FCS, 50 μM β-Mercaptoethanol, 10 ng/ml Flt3-ligand (FIt3L) (R&D Systems), 10 ng/ml IL-7 (R&D Systems), 100 ng/ml stem cell factor (SCF) (R&D Systems) and 1% P/S) for 2 days at 37° C., 5% CO2. […]
Cells to be analysed by flow cytometry were passed through 40 μm cell strainers to remove clumps and washed with PBS buffer, centrifuged at 800 g for 2 minutes and resuspended in 100 μl fluorescent activated cell sorting (FACS) buffer (PBS plus 1% BSA) with appropriate fluorochrome conjugated antibodies at a dilution of 1 in 300. […]

E4bp4 = test: RT-qPCR relative expression of E4bp4 in cultured HPCs; format: cell-based, mouse
Procedure: as §1, §2, §3

[1] = 5 μM added Day 2, harvested Day 4
[2] = 5 μM added Day 2, harvested Day 5

## CCOC(=O)C1Cc2ccccc2CN1C(=O)c1ccc(SC)s1 (stereo not shown) [SR8278, 1,2,3,4-Tetrahydro-2-[[5-(methylthio)-2-thienyl]carbonyl]-3-isoquinolinecarboxylic acid ethyl ester]
Eomes
  Eomes expression relative to Hprt, compared to 'No drug' control: higher
Id2; [1]
  Id2 expression relative to Hprt, compared to 'No drug' control: higher
Id2; [2]
  increase of Id2 expression: remained
HPCs; 20 μM
  toxicity to cells in culture: toxic and killed most of the cells
HPCs; added at Days 0 and 1, 5 and 10 μM
  numbers of live cells compared to 'No drug' control: remarkably low
E4bp4; [1]
  E4bp4 expression relative to Hprt, compared to 'No drug' control: higher
E4bp4; [2]
  increase in E4bp4 expression: disappeared

Source: patent US12496298B2, “Natural killer cells” (Imperial College Innovations Limited, priority 2017, dated 2025)
